Measured values: patent US20250161278A1, “CBL-B INHIBITOR, COMPOSITIONS COMPRISING A CBL-B INHIBITOR IN A METHOD OF TREATING A DISEASE ASSOCIATED WITH CELL PROLIFERATION” (HOTSPOT THERAPEUTICS, INC., priority 2022, published 2025)

Key:
CT26 tumor cells [1] = assay: Subcutaneous CT26 murine colorectal cancer model (Example 6), tumor growth inhibition; format: in vivo, mouse; settings: day 13, CT26 s.c., female BALB/c mice
Procedure: The objective of this study was to evaluate preclinically the in vivo dose of test compounds in the treatment of the subcutaneous CT26 murine colorectal cancer model in female BALB/c mice.
The CT26 tumor cells were maintained in vitro with RPMI-1640 medium supplemented with 10% fetal bovine serum at 37° C. in an atmosphere of 5% CO2 in air. The cells in exponential growth phase was harvested and quantitated by cell counter before tumor inoculation.
Each mouse was inoculated subcutaneously in the right lower flank region with CT26 tumor cells (5×10^5) in 0.1 ml of PBS for tumor development.
The randomization started when the mean tumor size reaches approximately 89.91 mm^3. Totally 80 mice were enrolled in the study and randomly allocated to 8 study groups, with 10 mice per group. Randomization was performed based on “Matched distribution” method (Study Director™ software, version 3.1.399.19). The date of randomization was denoted as day 0 (Jul. 8, 2021).
(§1) After tumor inoculation, the animals were checked daily for morbidity and mortality. During routine monitoring, the animals were checked for any effects of tumor growth and treatments on behavior such as mobility, food and water consumption, body weight gain/loss (Body weights would be measured twice per week after randomization), eye/hair matting and any other abnormalities. Mortality and observed clinical signs were recorded for individual animals in detail.
(§2) Tumor volumes were measured twice per week after randomization in two dimensions using a caliper, and the volume was expressed in mm3 using the formula: V=(L×W×W)/2, where V is tumor volume, L is tumor length (the longest tumor dimension) and W is tumor width (the longest tumor dimension perpendicular to L). Dosing as well as tumor and body weight measurements were conducted in a Laminar Flow Cabinet.
Tumor growth inhibition (TGI): TGI % is an indication of antitumor activity, and expressed as: TGI (%)=100×(1−T/C). T and C are the mean tumor volume (or weight) of the treated and control groups, respectively, on a given day.
The treatment was performed for 14 days. There was no extension of the treatment, the study was terminated on Day 13 post dosing initiation.
To compare tumor volumes of different groups at a pre-specified day, Bartlett's test was used to check the assumption of homogeneity of variance across all groups. When the p-value of Bartlett's test was >=0.05, we ran one-way ANOVA to test overall equality of means across all groups. If the p-value of the one-way ANOVA was <0.05, post hoc testing was performed by running Tukey's HSD (honest significant difference) tests for all pairwise comparisons, and Dunnett's tests for comparing each treatment group with the vehicle group. […]

CT26 tumor cells [2] = assay: Subcutaneous CT26 murine colorectal cancer model (Example 5), tumor growth inhibition; format: in vivo, mouse; settings: CT26 s.c., female BALB/c mice
Procedure: (§3) The objective of this study was to evaluate the in vivo anti-tumor efficacy of Compound 85 in the subcutaneous CT26 murine colorectal cancer model in female BALB/c mice. Compound 85 test particle was delivered via PO when tumors reached 80 mm^3. The compound was assessed at six different dose levels (3 mpk, l0 mpk, 30 mpk for BID and 6 mpk, 20 mpk and 60 mpk for QD). Tumor volumes and body weight were measured twice per week after the initiation of treatment. Compound 85 level was assessed in the plasma and tumor at the end of the study.
The CT26 tumor cells were maintained in vitro with RPMI-1640 medium supplemented with 10% fetal bovine serum at 37° C. in an atmosphere of 5% CO2. The cells in exponential growth phase were harvested and quantitated by cell counter before tumor inoculation.
Each mouse was inoculated subcutaneously in the right lower flank region with CT26 tumor cells (5×10^5) in 0.1 ml of PBS.
The randomization started when the mean tumor size reaches approximately 80.7 mm^3. In total, 80 mice were enrolled in the study and randomly allocated into 8 study groups, with 10 mice per group. Randomization was performed based on the “Matched distribution” method (Study Director™ software, version 3.1.399.19). The date of randomization was denoted as day 0.
as §1, §2

H22 tumor cells = assay: Subcutaneous H22 murine liver cancer model, tumor growth inhibition; format: in vivo, mouse; settings: for TGI (%): H22 s.c., female BALB/c mice
Procedure: The objective of this pharmacology study was to evaluate the anti-tumor growth efficacy of Compound 85 in the treatment of the subcutaneous H22 murine liver cancer model in female BALB/c mice. Compound 85 test particles were delivered via PO when the average tumor volume reached approximately 80 mm^3. […] Tumor volumes and body weight were measured three times per week after the initiation of treatment.
The H22 tumor cells were maintained in vitro with RPMI-1640 medium supplemented with 10% fetal bovine serum at 37° C. in an atmosphere of 5% CO2. Cells in the exponential growth phase were harvested and quantified by cell counter before tumor inoculation.
Each mouse was inoculated subcutaneously in the right front flank region with H22 tumor cells (1×10e6) in 0.1 ml of PBS for tumor development.
The randomization started when the mean tumor size reaches approximately 79.89 mm^A3. […] Randomization was performed based on “Matched distribution” method/“Stratified” method (Study Director™ software, version 3.1.399.19)/randomized block design. The date of randomization was denoted as day 0.
as §1, with “were” for “would be”, “thrice” for “twice”
as §2, with “three times” for “twice”, “Dosing,” for “Dosing”, “measurements,” for “measurements”
Tumor growth inhibition (TGI): TGI % is an indication of antitumor activity, expressed as: TGI (%)=100×(1−T/C). T and C are the mean tumor volume (or weight) of the treated and control groups on a given day.
The treatment was performed for 21 days and the study was terminated on day 20 post dosing initiation.

[3] = Body weight and mortality monitoring in CT26 model (Example 5); format: in vivo
Procedure: as §3, §1
The body weights and tumor volumes were measured by using Study Director™ software (version 3.1.399.19).

Row | Structure (SMILES) | TGI (%) (CT26 tumor cells [1]; 30 mg/kg BID p.o.) | TGI (%) (CT26 tumor cells [1]; 60 mg/kg BID p.o.) | TGI (%) (CT26 tumor cells [1]; 100 mg/kg BID p.o.) | TGI(%) on Day 18 (CT26 tumor cells [2]; 30 mpk BID p.o.) | TGI (%) (H22 tumor cells; 60 mpk BID p.o.) | loss of average body weight ([3]; day 3, 30 mpk BID p.o.) | loss of average body weight ([3]; day 3, 60 mpk QD p.o.) | mortality ([3]; mouse, in vivo) | TGI(%) on Day 18 (CT26 tumor cells [2]; 3 mpk BID p.o.) | TGI(%) on Day 18 (CT26 tumor cells [2]; 6 mpk QD p.o.) | TGI(%) on Day 18 (CT26 tumor cells [2]; 10 mpk BID p.o.) | TGI(%) on Day 18 (CT26 tumor cells [2]; 20 mpk QD p.o.) | TGI(%) on Day 18 (CT26 tumor cells [2]; 60 mpk QD p.o.) | TGI (%) (H22 tumor cells; 2 mpk QD p.o.) | TGI (%) (H22 tumor cells; 10 mpk QD p.o.) | TGI (%) (H22 tumor cells; 20 mpk QD p.o.) | TGI (%) (H22 tumor cells; 40 mpk QD p.o.) | minimal efficacious dose (lowest dose showing significant tumor inhibition) (H22 tumor cells; QD p.o., single agent) | maximum TGI (H22 tumor cells; high doses, 20 mpk or 40 mpk QD)
1 | C[C@H]1CCCN(Cc2cc(C(F)(F)F)c3cn(-c4cccc(C5(Cc6nncn6C)COC5)c4)c(=O)n3c2)C1 [Compound 29] | 10.78% | 41.76% | 50.83% | 17.3% | 63.97% |  |  |  |  |  |  |  |  |  |  |  |  |  | 
2 | C[C@H]1CCCN(Cc2cc(C(F)(F)F)c3cn(-c4cncc([C@H](c5nncn5C)C5CCC5)c4)c(=O)n3c2)C1 [Compound 85] | 43.02% |  |  | 37.9% |  | less than 5% | less than 5% | No mortality was reported | 18.7% | 3.8% | 24.4% | 22.2% | 33.9% | 19.56% | 41.21% | 68.54% | 64.65% | 6 mpk | ~65%
